One assay deals with Protein Wnt-3a (Mus musculus, UniProt P27467). Description: antagonism of Wnt3a pathway luciferase reporter – Wnt-LIGHT cells, luminescence, selectivity assay for Gli-SUFU antagonist project, dose response (AID 651570).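 Note: Wnt-LIGHT reporter cells stimulated with conditioned medium from Wnt3a-producing cells.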 Format: functional. As to conditions: read-out: IC50_Mean.
Assay [1] is described as follows: loss of viability in HepG2 cells – cell-based, CellTiter-Glo, cherry-picked, cytotoxicity control for Shn3 inhibitor project, dose response (AID 624134). It counts as functional.
The target of assay [2] is T1, Heat shock factor protein 1 (Mus musculus, UniProt P38532).
T1 sequence (P38532 whole entry): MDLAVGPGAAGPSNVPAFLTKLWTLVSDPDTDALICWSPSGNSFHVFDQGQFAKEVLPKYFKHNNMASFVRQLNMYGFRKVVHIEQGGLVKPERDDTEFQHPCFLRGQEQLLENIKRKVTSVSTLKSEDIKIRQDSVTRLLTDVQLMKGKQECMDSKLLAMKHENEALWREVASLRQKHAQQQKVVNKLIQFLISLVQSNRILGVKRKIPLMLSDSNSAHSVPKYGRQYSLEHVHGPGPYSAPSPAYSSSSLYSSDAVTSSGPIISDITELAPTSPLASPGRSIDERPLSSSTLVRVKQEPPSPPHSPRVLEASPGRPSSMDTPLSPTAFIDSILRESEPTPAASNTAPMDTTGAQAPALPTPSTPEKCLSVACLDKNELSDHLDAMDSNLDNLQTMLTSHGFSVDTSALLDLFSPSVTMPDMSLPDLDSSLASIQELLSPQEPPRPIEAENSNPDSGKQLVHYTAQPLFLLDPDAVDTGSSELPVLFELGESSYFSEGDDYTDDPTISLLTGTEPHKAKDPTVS
Nature of the assay: decrease of HSF1-responsive luciferase luminescence – cell-based, NIH3T3, dose retest, confirmation (AID 2382).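 Note: NIH3T3 fibroblasts with HSF1-driven luciferase reporter stressed by proteasome inhibitor MG132; luminescence from HSF1-driven luciferase expression after 8 hours of MG132 stress.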 Format: functional.

Assay [3] in a line: cells. It counts as functional.
Assay [4] is described as follows: reduction of Shn3 3'UTR-driven luciferase in osteoblasts – cell-based, Clone20 osteoblasts, firefly luciferase, cherry-picked, dose response (AID 624132).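 Note: firefly luciferase luminescence from reporter carrying the Shn3 3'UTR in osteoblasts.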 Format: functional.
Assay [5] is described as follows: non-specific 3'UTR reporter inhibition in Clone20-Shn3RL – cell-based, Renilla luciferase, cherry-picked, counter-screen for Shn3 inhibitor project, dose response (AID 624133). Format: functional. In general terms: Counterscreens check selectivity or assay interference.
Assay [6] can be described thus: HIV-1 AD8 envelope cell-cell fusion blockers – cherry-pick, dose response (AID 652062).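 Note: luciferase signal from cell-cell fusion driven by HIV-1 clade B AD8 Env; potency is for inhibitors of fusion seen as a drop in luminescence.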 Format: functional, cell-based.
Assay [7] in a line: luciferase reporter signal suppression in cells – H4 neuroglioma cells, luminescence, dose response (AID 1990). It counts as functional, cell-based.
Assay [8] can be described thus: Luminescence Cell-Based Dose Response HTS to Identify Inhibitors of 5'UTR Stem-Loop Driven Prion Protein mRNA Translation in H4 Neuroglioblastoma Cells. [Related pubchem assays: 1827 (Project Summary), 1813 (Primary HTS)]. Format: functional.
Assay [9] in a line: viability of uninfected HEp-2 cells – cell-based, HTS, cytotoxicity control for RSV inhibitor project, dose response (AID 2410). It counts as functional. As to conditions: human respiratory syncytial virus.
The test system of another assay is Vero. Description: cells. Format: functional, cell-based. The settings on record: Chlorocebus sabaeus.
For the next assay, the target named is Phospholipase A2 (Homo sapiens, UniProt P04054). It counts as functional.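 Note: confirmatory dose-response counterscreen on phospholipase A2, testing hits that came from an ultra-high-throughput screen for ATG4B inhibitors.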
Sequence of Phospholipase A2 (P04054 whole entry): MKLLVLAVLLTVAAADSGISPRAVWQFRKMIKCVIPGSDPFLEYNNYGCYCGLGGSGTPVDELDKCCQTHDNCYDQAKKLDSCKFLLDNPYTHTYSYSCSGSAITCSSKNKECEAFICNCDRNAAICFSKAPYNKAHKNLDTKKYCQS
The target in another assay is T2, Cysteine protease ATG4B (Homo sapiens, UniProt Q9Y4P1).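 Note: Fluorescence-based dose-response confirmation assay measuring inhibition of ATG4B activity.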
T2 sequence (Q9Y4P1 whole entry): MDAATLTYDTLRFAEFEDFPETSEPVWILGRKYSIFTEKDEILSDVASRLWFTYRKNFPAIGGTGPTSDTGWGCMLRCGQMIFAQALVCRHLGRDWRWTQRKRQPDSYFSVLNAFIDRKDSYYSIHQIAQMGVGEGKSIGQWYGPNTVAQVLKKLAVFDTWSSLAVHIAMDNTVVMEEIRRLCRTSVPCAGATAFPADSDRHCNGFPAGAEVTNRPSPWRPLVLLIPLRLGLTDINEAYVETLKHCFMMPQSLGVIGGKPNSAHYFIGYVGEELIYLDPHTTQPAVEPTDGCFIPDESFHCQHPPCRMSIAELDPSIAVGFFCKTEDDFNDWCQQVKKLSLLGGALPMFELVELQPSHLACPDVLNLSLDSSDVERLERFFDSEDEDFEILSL
It counts as functional.

A short description of assay [10]: NIH3T3 cell viability loss – ATP luminescence, mouse fibroblasts, counter-screen, dose response (AID 2010).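 Note: cells exposed to compound for about 90 hours before reading.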 Format: functional, cell-based.
A short description of assay [11]: alpha-synuclein stem-loop luciferase translation blockers – H4 neuroglioma cells, luminescence, confirmation (AID 1988). It counts as functional, cell-based.
Assay [12] can be described thus: cells.
A short description of assay [13]: Trypanosoma cruzi growth suppression in host cells – NIH3T3 host cells, beta-gal luminescence, confirmation (AID 2044).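 Note: intracellular parasites grown in NIH/3T3 mouse fibroblasts as host cells; luminescent beta-galactosidase reporter signal from transgenic T. cruzi replicating inside host cells; inhibitors lower the luminescence signal.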 Format: functional, cell-based.
The target in a further assay is Melanocortin receptor 4 (Homo sapiens, UniProt P32245). Format: functional, cell-based.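 Note: Cell-based assay with luminescence read-out, confirmatory dose-response testing for agonist activity of biased ligands at MC4R; human U2OS cells with tagged receptor and beta-arrestin; potency of agonists that increase receptor coupling to beta-arrestin.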
Sequence of Melanocortin receptor 4 (P32245 whole entry): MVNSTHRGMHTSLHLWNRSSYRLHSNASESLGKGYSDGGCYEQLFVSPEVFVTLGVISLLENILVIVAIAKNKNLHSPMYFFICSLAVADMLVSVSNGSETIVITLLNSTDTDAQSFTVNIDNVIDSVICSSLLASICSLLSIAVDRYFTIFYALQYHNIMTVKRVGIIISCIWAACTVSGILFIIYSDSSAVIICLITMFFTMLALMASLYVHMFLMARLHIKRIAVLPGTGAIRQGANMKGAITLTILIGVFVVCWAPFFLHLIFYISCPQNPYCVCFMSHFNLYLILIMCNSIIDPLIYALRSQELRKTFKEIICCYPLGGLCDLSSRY
In assay [14] the target is T3, Long-chain-fatty-acid--AMP ligase FadD28 (Mycobacterium tuberculosis, UniProt P9WQ59).
T3 sequence (P9WQ59 whole entry): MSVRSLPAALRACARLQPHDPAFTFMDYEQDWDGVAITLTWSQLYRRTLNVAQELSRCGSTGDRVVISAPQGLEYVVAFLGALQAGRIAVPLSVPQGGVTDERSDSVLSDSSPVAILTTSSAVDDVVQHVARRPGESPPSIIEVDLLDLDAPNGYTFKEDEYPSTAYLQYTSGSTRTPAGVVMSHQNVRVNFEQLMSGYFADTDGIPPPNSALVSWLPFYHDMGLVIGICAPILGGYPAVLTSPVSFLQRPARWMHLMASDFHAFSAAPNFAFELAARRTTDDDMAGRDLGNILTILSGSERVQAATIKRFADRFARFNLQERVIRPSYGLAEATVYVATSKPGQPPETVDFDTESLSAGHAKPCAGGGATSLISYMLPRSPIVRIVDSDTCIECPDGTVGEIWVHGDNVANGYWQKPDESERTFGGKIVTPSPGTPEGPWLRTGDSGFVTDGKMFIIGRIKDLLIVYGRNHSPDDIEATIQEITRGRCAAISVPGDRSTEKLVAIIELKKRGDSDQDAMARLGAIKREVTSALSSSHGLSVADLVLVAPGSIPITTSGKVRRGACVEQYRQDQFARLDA
Nature of the assay: Fluorescence polarization aasay to screen for inhibitors that compete for the binding of FadD28 to a bisubstrate Measured in Biochemical System Using Plate Reader - 2147-01_Inhibitor_Dose_CherryPick_Activity. Format: functional, Mycobacterium tuberculosis H37Rv. On the technique in general: Fluorescence polarisation rises when a labelled molecule tumbles more slowly, as on binding a larger partner.

A short description of assay [15]: decrease of insulin promoter-GFP reporter – imaging, high-content screening, mouse beta cells (AID 1628). Format: functional. The settings on record: MIN6.
The nature of assay [16]: MIN6 cell viability loss – mouse insulinoma, cytotoxicity control, dose response (AID 2122).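 Note: confirmatory high-throughput counterscreen run to flag cytotoxic compounds.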 Format: functional.

Calls of active or inactive are those of the source.

Sequence of Protein Wnt-3a (P27467 whole entry): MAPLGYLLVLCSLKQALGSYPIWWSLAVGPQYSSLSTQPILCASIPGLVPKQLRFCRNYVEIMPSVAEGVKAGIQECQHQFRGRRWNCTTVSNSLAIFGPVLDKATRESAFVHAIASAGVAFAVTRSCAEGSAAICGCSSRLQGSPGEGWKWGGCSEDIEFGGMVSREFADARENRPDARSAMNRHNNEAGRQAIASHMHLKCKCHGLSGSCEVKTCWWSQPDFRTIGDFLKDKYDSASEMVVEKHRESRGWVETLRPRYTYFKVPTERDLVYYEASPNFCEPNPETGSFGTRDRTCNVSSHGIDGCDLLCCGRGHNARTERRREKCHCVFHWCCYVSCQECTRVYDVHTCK

For the compound `COc1ccc(CN2CCC(C(=O)Nc3ccc(Oc4cccnc4)cc3)CC2)c(C)c1C`, the values for the IC50 on Protein Wnt-3a and in the assay “cells [3]” were 5.34 µM (active) and 10.3 µM (active), respectively. Besides, the AC50 in assay [1] is 12.9 µM (active); in assay [4], 3.68 µM (active). Besides, the EC50 in assay [2] was > 195 µM (not active).
Consider `CCCCn1c(CN(C)Cc2ccccc2)nc2c1c(=O)n(C)c(=O)n2C`, for which, at Protein Wnt-3a, the IC50 is 4.51 µM (active). For the same compound, the AC50 is 68.8 µM (active) in assay [1], 2.08 µM (active) in assay [5], 4.78 µM (active) in assay [6] and 2.38 µM (active) in [4].
Consider `Fc1ccc(C2c3[nH]c4ccccc4c3CCN2Cc2cccn2-c2ncccn2)cc1` (stereo unspecified), for which the EC50 is 14.6 µM (active) in assay [7]; 13.1 µM (active) in assay [8]; > 60 µM (not active) in [10]; > 120 µM (not active) in [11]; 1.7 µM (active) in assay [13]. Further, the CC50 in assay [9] is 24 µM (active). Moreover, the IC50 in the assay on Vero was > 25 µM (active); at Phospholipase A2, 15.5 µM (active); at Cysteine protease ATG4B, 17.1 µM (active); in the assay “cells [12]” it was 8.94 µM (active).
Regarding `FC(F)(F)c1cccnc1Oc1ccc(C2=NCCS2)cc1`, the EC50 on Melanocortin receptor 4 is > 89.1 µM (inactive).
Consider `COc1ccc(-c2nnn(CC(=O)c3c[nH]c4ccccc34)n2)cc1OC`, for which, in assay [14], the AC50 is > 100 µM (inactive).
On to `N=c1c(-c2nc3ccccc3[nH]2)cc(C(=O)c2ccco2)nn1-c1ccccc1`, for which the IC50 at Protein Wnt-3a is 16.8 µM (active).
For `COCCn1c(CN2CCC(Cc3ccccc3)CC2)nc2c1c(=O)n(C)c(=O)n2C`, the IC50 in assay [15] was 0.597 µM (active); on Protein Wnt-3a, 2.11 µM (active); in [16], 0.355 µM (active).

Broadly, the AC50 is the concentration giving half of the maximal activity seen. As usually defined, the EC50 is the concentration giving half of the maximal effect. For orientation: CC50 means the concentration that lowers cell viability or growth by half.

Source of the values: ChEMBL document CHEMBL1201862, “PubChem BioAssay data set” (2004).
